Test results reported in patent US20100098691A1, “COMBINATION OF BENZIMIDAZOLE ANTI-CANCER AGENT AND A SECOND ANTI-CANCER AGENT” (S'BIO PTE LTD, priority 2001, published 2010).

Legend:
HCT 116 (colon) = test: Human xenograft model, tumor growth inhibition; assay type: in vivo, female athymic nude mice; details: vehicle (Tw/MC) po qd × 14 + 5FU 50 mg/kg iv D1, 8, 15
Method: The TGI assessment, the treatment-induced decreases in tumor volume on day 21 of various treatment groups were compared to controls. Percent tumor growth inhibition (% TGI) was calculated as

H460 (lung) = test: Human xenograft model, tumor growth inhibition; assay type: in vivo, female athymic nude mice
Method: To assess in vivo antitumor activity in human xenograft models, female athymic nude mice, 12 to 14 weeks of age, were implanted subcutaneously in the flank with human cancer cells. When the tumors reached approximately 100 mm^3 in size, the mice were pair-matched into various treatment groups. For oral administration, compounds were dissolved in a mixture of 0.5% methylcellulose and 0.1% Tween 80 and administered by gavage to the tumor-bearing mice. For i.v.andi.p..administration, compounds were dissolved in 0.9% NaCl and for the i.v. administration, the compound was administered via the tail vein.
Percent tumor growth inhibition (% TGI) was calculated as
% TGI=(Cday a−Tday a)/(Cday a−Cday 1)×100
Where C is the median tumor volume of the control group, T is the median tumor volume of the treatment group, and day a is the day of assessment.

SMILES: O=c1[nH]cc(F)c(=O)[nH]1 [Compound 5FU, Fluorouracil]
- % TGI at Day 15 (HCT 116 (colon)): 34%

SMILES: CCCCc1nc2cc(/C=C/C(=O)NO)ccc2n1CCN(CC)CC [Compound A8, 3-[2-Butyl-1-(2-diethylamino-ethyl)-1H-benzimidazol-5-yl]-N-hydroxy-acrylamide]
- % TGI at Day 15 (H460 (lung); A8 50 mg/kg po qd × 14 d): 33%
- % TGI at Day 15 (H460 (lung); A8 75 mg/kg po D1-3, D8-10): 14%

SMILES: N.N.O=C([O-])C1(C(=O)[O-])CCC1.[Pt+2] [carboplatin, Carboplatin]
- % TGI at Day 15 (H460 (lung); carboplatin 30 mg/kg ip D1, 8): 29%

SMILES: Nc1ccn([C@@H]2O[C@H](CO)[C@@H](O)C2(F)F)c(=O)n1 [gemcitabine, Gemcitabine]
- % TGI at Day 15 (H460 (lung); gemcitabine 80 mg/kg ip D1, 5, 9, 13 + vehicle po qd × 14 d): 36%
